Test results reported in paper PMC10029980 (Journal of medicinal chemistry, 2022).

Columns and labels:
[1] = target: human recombinant PAK1 (kinase domain) (Homo sapiens, UniProt Q13153); assay: Z'-LYTE FRET kinase assay, PAK1 inhibition; assay type: biochemical; details: for PAK1 inhibitory activity and selectivity of NVS-PAK1-1 conjugates: tested for PAK1, PAK2 and PAK4 inhibition (Table S1)
[2] = tested on: HEY-A8 cells; assay: MTT cell proliferation, HEY-A8; assay type: cell-based; details: MTT assay, 96 hr, PAK2-dependent cells
[3] = tested on: OMM1 cells; assay: MTT cell proliferation, OMM1; assay type: cell-based; details: MTT assay, 96 hr, PAK2-dependent cells
[4] = target: T1, PAK1 (Homo sapiens, UniProt Q13153); assay: PAK1 degradation in Panc1 cells; assay type: cell-based; details: compared with BJG-05-014 and BJG-05-027, Figure S2
[5] = tested on: MOLT4 cells proteome; assay: Global multiplexed mass spectrometry proteomics in MOLT4 cells; assay type: cell-based, human; details: 1 µM, 5 hr
[6] = tested on: MCF7 cells; assay: MTT cell proliferation, MCF7; assay type: cell-based; details: for EC50: Homo sapiens, MCF7, 96 h, read-out: EC50 anti-proliferative, MCF7
[7] = target: T1, PAK1; assay: PAK1 degradation by immunoblot in MCF7 and OVCAR3 cells; assay type: cell-based
[8] = target: human recombinant PAK2 (full length) (Homo sapiens, UniProt Q13177); assay: Z'-LYTE FRET kinase assay, PAK2 inhibition; assay type: biochemical
[9] = tested on: OVCAR3 cells; assay: MTT cell proliferation, OVCAR3; assay type: cell-based; details: for EC50: Homo sapiens, OVCAR-3, 96 h, read-out: EC50 anti-proliferative, OVCAR3
[10] = target: Nluc-PAK1 (Homo sapiens, UniProt Q13153+Q96SW2); assay: Nluc-PAK1 luciferase quantitation of PAK1 expression; assay type: cell-based
[11] = tested on: phosphorylation of MEK1 at S298 and of ERK; assay: MEK and ERK phosphorylation by immunoblot in OVCAR3 and MCF7 cells; assay type: cell-based; details: 10 nM, 24 hr
[12] = cited from earlier work
[13] = MCF7 and OVCAR3 cells, 24 hr treatment

T1 sequence (Q13153 whole entry): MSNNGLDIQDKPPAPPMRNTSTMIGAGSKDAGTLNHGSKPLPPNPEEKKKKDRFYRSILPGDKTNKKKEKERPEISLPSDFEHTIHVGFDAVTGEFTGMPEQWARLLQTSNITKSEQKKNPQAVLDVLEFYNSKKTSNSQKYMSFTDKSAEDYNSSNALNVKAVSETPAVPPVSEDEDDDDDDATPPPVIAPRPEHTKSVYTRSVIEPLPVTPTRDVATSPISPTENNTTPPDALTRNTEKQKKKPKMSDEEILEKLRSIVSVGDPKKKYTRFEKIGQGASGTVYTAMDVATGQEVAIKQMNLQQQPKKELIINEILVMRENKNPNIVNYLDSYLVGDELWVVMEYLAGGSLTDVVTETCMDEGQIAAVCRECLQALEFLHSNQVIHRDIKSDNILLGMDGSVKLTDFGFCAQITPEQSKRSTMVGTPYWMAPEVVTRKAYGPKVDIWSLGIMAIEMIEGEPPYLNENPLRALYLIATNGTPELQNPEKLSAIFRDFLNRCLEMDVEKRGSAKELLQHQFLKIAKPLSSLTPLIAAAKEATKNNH
human recombinant PAK2 (full length), sequence (Q13177 whole entry): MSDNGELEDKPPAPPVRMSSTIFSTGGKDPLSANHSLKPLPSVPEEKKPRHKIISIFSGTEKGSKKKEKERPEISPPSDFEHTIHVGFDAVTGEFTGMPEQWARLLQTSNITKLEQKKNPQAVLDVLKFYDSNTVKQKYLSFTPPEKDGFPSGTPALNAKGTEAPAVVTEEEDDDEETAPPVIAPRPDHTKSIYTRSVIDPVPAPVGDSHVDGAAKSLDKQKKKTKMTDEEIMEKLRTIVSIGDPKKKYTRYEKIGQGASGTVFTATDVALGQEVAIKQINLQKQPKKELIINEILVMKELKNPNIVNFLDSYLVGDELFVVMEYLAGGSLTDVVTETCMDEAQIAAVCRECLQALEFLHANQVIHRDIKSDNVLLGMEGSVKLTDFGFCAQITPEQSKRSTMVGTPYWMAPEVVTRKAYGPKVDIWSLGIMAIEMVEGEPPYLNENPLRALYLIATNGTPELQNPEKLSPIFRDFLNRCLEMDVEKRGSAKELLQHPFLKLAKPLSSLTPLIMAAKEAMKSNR
human recombinant PAK1 (kinase domain), sequence (Q13153 270-521 limits assumed): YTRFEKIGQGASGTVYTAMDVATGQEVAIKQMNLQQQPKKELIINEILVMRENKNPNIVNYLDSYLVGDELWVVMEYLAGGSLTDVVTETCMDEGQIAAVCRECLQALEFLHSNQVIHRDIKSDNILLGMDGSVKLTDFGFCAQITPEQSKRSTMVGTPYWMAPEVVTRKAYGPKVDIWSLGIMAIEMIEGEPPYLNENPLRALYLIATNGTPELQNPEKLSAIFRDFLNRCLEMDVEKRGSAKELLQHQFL
Nluc-PAK1, sequence (Q13153 whole entry): as the sequence (Q13153 whole entry) above
Nluc-PAK1, sequence (Q96SW2 whole entry): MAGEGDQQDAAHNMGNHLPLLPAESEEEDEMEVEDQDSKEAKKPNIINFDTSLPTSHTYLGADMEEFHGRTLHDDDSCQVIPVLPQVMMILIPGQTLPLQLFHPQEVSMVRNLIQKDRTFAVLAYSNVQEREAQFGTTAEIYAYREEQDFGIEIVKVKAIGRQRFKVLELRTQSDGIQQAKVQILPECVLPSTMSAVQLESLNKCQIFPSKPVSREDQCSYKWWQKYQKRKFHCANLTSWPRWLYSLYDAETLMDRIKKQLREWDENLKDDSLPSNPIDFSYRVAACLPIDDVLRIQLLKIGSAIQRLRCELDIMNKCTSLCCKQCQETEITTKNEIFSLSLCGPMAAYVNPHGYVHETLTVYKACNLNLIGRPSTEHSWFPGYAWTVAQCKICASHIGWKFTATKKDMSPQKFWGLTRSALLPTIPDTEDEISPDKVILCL
Nluc-PAK1, sequence (Q16531 whole entry partner): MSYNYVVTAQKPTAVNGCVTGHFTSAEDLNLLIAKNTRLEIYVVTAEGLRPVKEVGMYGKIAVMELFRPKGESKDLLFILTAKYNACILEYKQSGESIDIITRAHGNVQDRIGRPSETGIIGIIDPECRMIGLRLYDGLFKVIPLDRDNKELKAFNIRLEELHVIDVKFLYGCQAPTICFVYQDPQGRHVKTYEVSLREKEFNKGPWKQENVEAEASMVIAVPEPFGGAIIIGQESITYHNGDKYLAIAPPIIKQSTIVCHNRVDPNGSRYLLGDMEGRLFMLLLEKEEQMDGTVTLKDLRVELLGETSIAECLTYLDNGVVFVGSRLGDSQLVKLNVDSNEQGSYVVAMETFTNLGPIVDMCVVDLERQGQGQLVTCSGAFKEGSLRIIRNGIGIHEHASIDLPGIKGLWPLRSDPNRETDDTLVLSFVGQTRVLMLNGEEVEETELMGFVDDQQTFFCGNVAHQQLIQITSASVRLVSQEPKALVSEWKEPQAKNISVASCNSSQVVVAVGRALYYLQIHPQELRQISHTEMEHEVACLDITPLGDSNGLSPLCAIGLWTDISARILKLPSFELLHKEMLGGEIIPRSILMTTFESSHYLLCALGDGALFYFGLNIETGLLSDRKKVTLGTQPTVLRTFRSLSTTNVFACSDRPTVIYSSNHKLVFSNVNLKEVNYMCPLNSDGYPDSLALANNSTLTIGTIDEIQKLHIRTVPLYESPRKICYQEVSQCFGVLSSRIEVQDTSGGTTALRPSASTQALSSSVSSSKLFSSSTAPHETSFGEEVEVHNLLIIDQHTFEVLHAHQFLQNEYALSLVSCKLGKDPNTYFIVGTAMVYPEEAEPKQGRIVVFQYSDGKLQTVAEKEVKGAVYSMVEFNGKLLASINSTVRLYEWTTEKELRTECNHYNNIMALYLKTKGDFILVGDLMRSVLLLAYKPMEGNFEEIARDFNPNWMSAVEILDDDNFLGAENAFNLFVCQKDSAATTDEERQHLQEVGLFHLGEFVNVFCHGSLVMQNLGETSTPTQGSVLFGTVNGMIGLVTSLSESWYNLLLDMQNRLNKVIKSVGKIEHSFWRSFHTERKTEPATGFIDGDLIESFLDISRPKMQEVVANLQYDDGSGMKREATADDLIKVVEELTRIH

O=C1CCC(N2C(=O)c3cccc(NCCOCCOCCC(=O)N4CC[C@H](NC5=Nc6cc(F)ccc6N(CC(F)F)c6ccc(Cl)cc65)C4)c3C2=O)C(=O)N1 (stereo partly drawn) [BJG-05-014, 4-((2-(2-(3-((S)-3-((2-chloro-5-(2,2-difluoroethyl)-8-fluoro-5H-dibenzo[b,e][1,4]diazepin-11-yl)amino)pyrrolidin-1-yl)-3-oxopropoxy)ethoxy)ethyl)amino)-2-(2,6-dioxopiperidin-3-yl)isoindoline-1,3-dione]
PAK1 inhibitory activity and selectivity of NVS-PAK1-1 conjugates [1]: retained PAK1 inhibitory activity and selectivity

O=C1CCC(N2C(=O)c3cccc(NCCCCCNC(=O)N4CC[C@H](NC5=Nc6cc(F)ccc6N(CC(F)F)c6ccc(Cl)cc65)C4)c3C2=O)C(=O)N1 (stereo partly drawn) [BJG-05-027, (3S)-3-((2-chloro-5-(2,2-difluoroethyl)-8-fluoro-5H-dibenzo[b,e][1,4]diazepin-11-yl)amino)-N-(5-((2-(2,6-dioxopiperidin-3-yl)-1,3-dioxoisoindolin-4-yl)amino)pentyl)pyrrolidine-1-carboxamide]
PAK1 inhibitory activity and selectivity of NVS-PAK1-1 conjugates [1]: retained PAK1 inhibitory activity and selectivity

O=C1CCC(N2C(=O)c3cccc(NCCCCCCCCNC(=O)N4CC[C@H](NC5=Nc6cc(F)ccc6N(CC(F)F)c6ccc(Cl)cc65)C4)c3C2=O)C(=O)N1 (stereo partly drawn) [BJG-05-039, (3S)-3-((2-chloro-5-(2,2-difluoroethyl)-8-fluoro-5H-dibenzo[b,e][1,4]diazepin-11-yl)amino)-N-(8-((2-(2,6-dioxopiperidin-3-yl)-1,3-dioxoisoindolin-4-yl)amino)octyl)pyrrolidine-1-carboxamide]
anti-proliferative activity, HEY-A8 [2]: did not show increased efficacy relative to NVS-PAK1-1 | anti-proliferative activity, OMM1 [3]: did not show increased efficacy relative to NVS-PAK1-1 | PAK1 degradation profile in Panc1 cells [4]: most promising profile | downregulation of PAK1 in proteomic analysis [5]: significant downregulation of this kinase was not apparent | downregulation of RNF166, Ikaros (IKZF1) and Aiolos (IKZF3) [5]: strongly downregulated | EC50 [6]: 86 nM | reduction in PAK1 levels by immunoblot ([7]; Figure 2A): ~ 50% | concentration at which diminished PAK1 degradation (hook effect) was observed [7, 13]: ≥ 1 µM | concentration of maximal PAK1 degradation [7, 13]: 10 nM | PAK1 degradation ([7]; MCF7 and OVCAR3 cells, 24 hr treatment, immunoblot): induced degradation of PAK1 | time to partial degradation of PAK1 ([7]; MCF7 cells, 10 nM): ≤ 4 h | PAK1 degradation on co-treatment with bortezomib (proteasome inhibitor) ([7]; co-treatment with bortezomib): prevented PAK1 destabilization | IC50 [8]: > 10000 nM | increase of selectivity over PAK2 relative to NVS-PAK-1 ([8]; Table S1): more than ten-fold | EC50 [9]: 100 nM | PAK1 inhibitory activity and selectivity of NVS-PAK1-1 conjugates [1]: retained PAK1 inhibitory activity and selectivity | maximal loss of the PAK1 protein achieved [10]: ≤ 70% | reduction in PAK1 expression ([10]; 10 nM, Nluc-PAK1 cells, 24 hr): approximately 70% | phosphorylation of ERK [11]: inhibiting phosphorylation of ERK | phosphorylation of MEK S298 [11]: inhibited phosphorylation of MEK S298

Cc1ccc(CO)cc1N(Cc1ccccc1C#N)c1nc(Nc2ccc(N3CCN(CCOCCOCCNc4cccc5c4C(=O)N(C4CCC(=O)NC4=O)C5=O)CC3)c(S(C)(=O)=O)c2)ncc1F (centres unmarked) [BJG-05-093, 2-(((2-((4-(4-(2-(2-(2-((2-(2,6-dioxopiperidin-3-yl)-1,3-dioxoisoindolin-4-yl)amino)ethoxy)ethoxy)ethyl)piperazin-1-yl)-3-(methylsulfonyl)phenyl)amino)-5-fluoropyrimidin-4-yl)(5-(hydroxymethyl)-2-methylphenyl)amino)methyl)benzonitrile]
inhibitor activity of linker conjugates of an ATP-competitive PAK1 inhibitor ([1]; Table S1): retained inhibitor activity

CC(C)NC(=O)N1CC[C@H](NC2=Nc3cc(F)ccc3N(CC(F)F)c3ccc(Cl)cc32)C1 [NVS-PAK1-1]
effect of combination with PAK shRNA on MCF7 cells ([6]; 100 nM, MCF7 cells with PAK shRNA): lethal | EC50 [6]: 11800 nM | in vivo half-life [12]: short in vivo half-life | IC50 [8]: 824 nM | EC50 [9]: 8900 nM | phosphorylation of ERK [11]: no visible impact | phosphorylation of MEK S298 [11]: no visible impact

Nc1cccc2c1CN(C1CCC(=O)NC1=O)C2=O (centres unmarked) [lenalidomide]
anti-proliferative activity, MCF7 ([6]; MTT assay, 96 hr): lacked significant antiproliferative effects | anti-proliferative activity, OVCAR3 ([9]; MTT assay, 96 hr): lacked significant antiproliferative effects
